Patent publication US6133249A, “Phospholipid and propylene glycol based lubricant” (MacNaught Medical Pty Limited, priority 1995, dated 2000)
Values belong to the compound of their own block, whether it stands above or below them.

Key:
phospholipases = details: cited from earlier work
[1] = cited from earlier work
[2] = Inflammatory reaction of horse joints (protein, ALP, leucocyte count, specific gravity); assay type: in vivo; details: 1 ml PG only, 6 horses
Experimental: 5. Having established the extreme lubricity imparted by exogenous DPPC and the fact that it is likely to remain in the joint for long enough to be worthwhile clinically, the next step was to look for any inflammatory reaction.
The following parameters were used as indices of inflammatory reaction:
2. Alkaline phosphatase (ALP)
6. In the next series of trials, the joints of 6 horses were injected with 1 ml of PG only to see whether the solvent was the major cause of the inflammatory reaction.
7. The main series of trials was then devised to compare the inflammatory reaction of the radiocarpal joint to the product (100 mg DPPC in 1 mlPG) with the reactions to other agents commonly injected into that joint in the normal course of clinical practice.
The agents selected for comparison were
1. A standard clinical (1 ml) dose of prilocaine--a local anaesthetic.
2. A standard clinical dose of hyaluromic acid (Hyartil)™ (1 ml) a joint lubricant.

[3] = Retention of radio-labelled DPPC in the joint; assay type: in vivo, horse
Experimental: 4. More quantitative tests were undertaken in a further 4 horses administered radio-labelled 50 mg DPPC in 1 ml. The solution was injected into one contraleteral joint and the horse was sacrificed 2-10 days later when the cartilage was excised and synovial fluid collected for radio-assay.

[4] = Miscibility and physical state of phospholipid in propylene glycol; assay type: physicochemical; details: all concentrations / any proportion

Compound: CCCCCCCCCCCCCCCC(=O)OC[C@H](COP(=O)([O-])OCC[N+](C)(C)C)OC(=O)CCCCCCCCCCCCCCC [L-enantiomeric alpha-DPPC, alpha-dipalmitoyl phosphatidylcholine]
- metabolism by endogenous phospholipases (phospholipases): capable of metabolising

- solvent as the major cause of the inflammatory reaction [2]: This proved to be the case
Compound: CC(O)CO (centres unmarked) [PG, propylene glycol]
- inflammatory reaction relative to hyaluronic acid ([1]; mammalian joints and other articulations): somewhat less severe

Compound: hyaluronic acid
- inflammatory reaction in animal tissues ([1]; in vivo): appreciable inflammatory reaction

Compound: CCCCCCCCCCCCCCCC(=O)OC[C@H](COP(=O)([O-])OCC[N+](C)(C)C)OC(=O)CCCCCCCCCCCCCCC [DPPC, Dipalmitoyl phosphatidylcholine]
- retention of DPPC in the joint ([3]; conclusion): retained in the joint for long enough to enable lubrication to be maintained by monthly or fortnightly irrigation
- time the joint would remain lubricated after an injection ([3]; inferred from half-lives): about one month
- miscibility with propylene glycol [4]: totally miscible

Compound: CCCCCCCCCCCCCCCC(=O)OC[C@@H](COP(=O)([O-])OCC[N+](C)(C)C)OC(=O)CCCCCCCCCCCCCCC [D-enantiomeric alpha-DPPC, alpha-dipalmitoyl phosphatidylcholine]
- metabolism by endogenous phospholipases (phospholipases): cannot break down
